{"source": "patent US20240325544A1", "about": "“CATIONIC LIPID FOR COVALENT MODIFICATION OF PEPTIDES” (PharmalN Corporation, priority 2023, published 2024)", "key": {"human NPRC": {"molecular_target": "T1, human NPRC (Homo sapiens, UniProt P17342)", "T1 construct": "NPRC Q1-S434, (GenBank Accn. #NP_001191304.1); made in house; host or cells: Expi293 cells", "T1 sequence (P17342 43-476 limits assumed)": "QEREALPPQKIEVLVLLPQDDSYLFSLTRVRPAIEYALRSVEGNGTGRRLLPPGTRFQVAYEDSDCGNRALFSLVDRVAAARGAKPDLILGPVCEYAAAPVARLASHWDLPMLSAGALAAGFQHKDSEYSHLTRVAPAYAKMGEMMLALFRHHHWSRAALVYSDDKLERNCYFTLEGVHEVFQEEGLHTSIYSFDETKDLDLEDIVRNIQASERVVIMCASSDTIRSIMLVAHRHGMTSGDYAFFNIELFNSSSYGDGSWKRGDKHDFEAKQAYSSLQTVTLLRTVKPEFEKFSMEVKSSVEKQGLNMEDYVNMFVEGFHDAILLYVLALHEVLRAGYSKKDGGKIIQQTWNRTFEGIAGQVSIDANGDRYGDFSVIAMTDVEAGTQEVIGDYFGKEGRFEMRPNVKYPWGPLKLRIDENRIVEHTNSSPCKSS", "test": "Fluorescence polarization (FP) assay with CNP-F* probe, NPRC", "assay_type": "binding", "settings": "150 nM test article, 5 nM CNP-F*, 50 nM human NPRC", "protocol": "Error bars represent standard error of the mean. […] NO.\nIn the presence of [SEQ ID.\nThe CNP-F* probe was incubated at a final concentration of 5 nM in the presence of 50 nM human NPRB or NPRC in an assay buffer containing PBS, pH 7.4 and 0.01% Triton X-100. A […] volume of CNP-F* probe and NPR were dispensed into a black 96-well Costar flat-bottom polystyrene plate prior to FP measurement. Next, […] volume of SEQ ID. No. 31 (final concentration 150 nM) was added to the premixed probe and NPR. The plate was incubated at room temperature for 10 min. Fluorescence polarization was then measured on Flexstation 3 (excitation wavelength: 480 nm; emission wavelength: 525 nm and cutoff at 515 nm).\nCNP-F* was prepared using solid phase peptide synthesis. […] Next, the crude linear peptide was cleavage with 95% TFA in the presence of carbocation scavengers and ether precipitation."}, "MC38 colon cancer cells": {"test_system": "MC38 colon cancer cells", "test": "Subcutaneous mouse model of colon cancer using MC38 cells (FIG. 12)", "assay_type": "in vivo, mice", "settings": "monotherapy, 0.3 mg/kg SC, 5 days on, 2 days off, 3 cycles; Day 22", "protocol": "FIGS. 12A-12B. […] Error bars represent standard error of the mean. FIG. 12A) A diagram of the dose schedule for administration of immune checkpoint inhibitor (anti-tigit Ab) and SEQ ID NO: 31. FIG. 12 B) Tumor growth kinetics of 6-week-old male C57BL/6J mice (n=8-9 per group) that were subcutaneously inoculated with MC38 colon cancer cells (1,000,000 cells/mouse) in right flank. Starting from Day 4 post-inoculation, anti-tigit Ab was administered intraperitoneally at 5 mg/kg twice a week for 2 cycles; SEQ ID NO: 31 was administered subcutaneously at a bolus dose of 0.3 mg/kg (0.1 μmol/kg) once daily for 5 days (5 days on, 2 days off) for 3 cycles; or a combination of anti-tigit Ab (5 mg/kg IP twice a week; 2 cycles) and SEQ ID NO: 31 (0.3 mg/kg SC once a day for 5 days on and 2 days off; 3 cycles). The control group, which received only buffer, was dosed in the same manner as SEQ ID NO: 31 to establish the baseline tumor growth kinetics. […]\nAnimal care and treatment: Male C57BL/6J mice (6 weeks-old) were purchased from Kyudo (Saga, Japan) and maintained under a 12-hour light/12-hour dark cycle with free access to water and standard mouse diet (MF diet; Oriental Yeast Co., Ltd, Tokyo Japan). […] Tumor sizes were measured using calipers on Days 4, 7, 14, and Day 22 post-inoculation. […]"}}, "note": "Bridge positions count the residues as written; N and C are the ends. Square brackets hold non-standard residues; d marks the D form. Peptide text beside a SMILES is read from it. * marks the point of attachment. Palmitoyl = CCCCCCCCCCCCCCCC(=O)*; Dap = NC[C@H](N)C(=O)O; AEEA = NCCOCCOCC(=O)O", "data": [{"smiles": "CCCCCCCCCCCCCCCC(=O)NCCOCCOCC(=O)NCCOCCOCC(=O)NCCOCCOCC(=O)N[C@@H](CN)C(=O)N[C@@H](CN)C(=O)NCC(=O)N[C@@H](CC(C)C)C(=O)N[C@@H](CO)C(=O)N[C@@H](CCCCN)C(=O)NCC(=O)N[C@H]1CSSC[C@@H](C(=O)O)NC(=O)CNC(=O)[C@H](CC(C)C)NC(=O)CNC(=O)[C@H](CO)NC(=O)[C@H](CCC(N)=O)NC(=O)[C@H](CO)NC(=O)CNC(=O)[C@H]([C@@H](C)CC)NC(=O)[C@H](CCCNC(=N)N)NC(=O)[C@H](CC(=O)O)NC(=O)[C@H](CC(C)C)NC(=O)[C@H](CCCCN)NC(=O)[C@H](CC(C)C)NC(=O)CNC(=O)[C@H](Cc2ccccc2)NC1=O", "note": "[SEQ ID NO: 31] ({Palmitoyl-AEEA-AEEA-AEEA}-[Dap][Dap]GLSKGCFGLKLDRIGSQSGLGC-OH; disulfide 8-24; C-terminus assumed)", "values": [{"measurement": "Binding to NPRC (FP signal of CNP-F* probe)", "setting": "human NPRC", "result": "low FP signal demonstrates binding"}, {"measurement": "Tumor volume and cancer burden compared to the Control group", "setting": "MC38 colon cancer cells", "result": "significant decrease in tumor volume and cancer burden"}]}]}
